Assay results reported in patent publication US12617784B2, “AKT inhibitor” (Nanjing Chia Tai Tianqing Pharmaceutical Co., Ltd., priority 2019, dated 2026).
Where a name gives a salt, the structure may show the parent alone.

Experiments:
Type in all cases: biochemical
AKT2 = target: T1, AKT2 (Homo sapiens, UniProt P31751); test: In vitro enzyme activity test (HTRF kinEASE TK), AKT2; settings: ATP 20 μM, enzyme 0.1 ng/well, reaction 50 min
T1 construct: purchased Carna 01-102
Method: (§1) Experimental Procedure 2.1 Preparation of Reagents
(§2) 1 mL 1× Kinase Reaction Buffer of Kinase AKT1, AKT2 and AKT3 contain 200 μL 5× Kinase Reaction Buffer, 5 μL 1 M MgCl2, 1 μL 1 M DTT and 794 μL ultrapure water.
(§3) In addition to the control wells, 4 μL of the diluted compound working solutions were added to all reaction wells.
(§4) b) 2 μL of the previously prepared TK-biotin substrate solution was added to all reaction wells.
(§5) c) 2 μL of the previously prepared enzyme solution was added to all reaction wells, except the negative wells. The volume of the negative well was filled with 2 μL of enzyme corresponding to 1× kinase reaction buffer. The plate was sealed with sealing film. After mixing, the plate was incubated at room temperature for 10 min to allow the compound and enzyme to fully combined.
(§6) d) 2 μL of ATP solution was added to all reaction wells to start the kinase reaction.
(§7) e) The test solution was prepared 5 min before the end of the kinase reaction.
(§8) f) After the kinase reaction was completed, 5 μL of diluted streptavidin-XL665 were added to all reaction wells, and immediately the diluted europium-labeled tyrosine kinase substrate antibody detection solution was added after mixing.
(§9) g) The plate was sealed and mixed well. […] The inhibition rate of each well was calculated through the fully active wells and the background signal wells, taking the average value in case of multiple wells. Meanwhile, the professional drawing analysis software PRISM 6.0 was used to fit the half maximal inhibitory concentration (IC50) of each test compound.

AKT1 = AKT1 (Homo sapiens, UniProt P31749); test: In vitro enzyme activity test (HTRF kinEASE TK), AKT1; settings: ATP 2 μM, enzyme 0.6 ng/well, reaction 50 min
AKT1, sequence (P31749 whole entry): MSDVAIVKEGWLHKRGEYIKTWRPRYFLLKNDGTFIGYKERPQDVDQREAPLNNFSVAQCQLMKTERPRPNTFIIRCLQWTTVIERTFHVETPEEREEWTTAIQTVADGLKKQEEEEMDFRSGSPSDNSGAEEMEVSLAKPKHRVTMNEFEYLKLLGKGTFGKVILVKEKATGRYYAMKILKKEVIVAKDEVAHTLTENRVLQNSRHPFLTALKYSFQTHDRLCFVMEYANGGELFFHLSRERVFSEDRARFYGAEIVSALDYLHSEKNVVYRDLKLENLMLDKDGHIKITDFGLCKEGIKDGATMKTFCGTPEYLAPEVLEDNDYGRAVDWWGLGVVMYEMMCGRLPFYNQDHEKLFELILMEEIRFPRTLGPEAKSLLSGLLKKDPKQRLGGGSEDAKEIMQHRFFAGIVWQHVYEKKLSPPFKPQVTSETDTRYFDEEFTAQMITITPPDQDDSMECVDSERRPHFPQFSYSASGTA
Method: as §1, §2, §3, §4, §5, §6, §7, §8, §9

AKT3 = target: T2, AKT3 (Homo sapiens, UniProt Q9Y243); test: In vitro enzyme activity test (HTRF kinEASE TK), AKT3; settings: enzyme 0.3 ng/well, reaction 50 min
T2 construct: purchased Invitrogen PV3185
T2 sequence (Q9Y243 whole entry): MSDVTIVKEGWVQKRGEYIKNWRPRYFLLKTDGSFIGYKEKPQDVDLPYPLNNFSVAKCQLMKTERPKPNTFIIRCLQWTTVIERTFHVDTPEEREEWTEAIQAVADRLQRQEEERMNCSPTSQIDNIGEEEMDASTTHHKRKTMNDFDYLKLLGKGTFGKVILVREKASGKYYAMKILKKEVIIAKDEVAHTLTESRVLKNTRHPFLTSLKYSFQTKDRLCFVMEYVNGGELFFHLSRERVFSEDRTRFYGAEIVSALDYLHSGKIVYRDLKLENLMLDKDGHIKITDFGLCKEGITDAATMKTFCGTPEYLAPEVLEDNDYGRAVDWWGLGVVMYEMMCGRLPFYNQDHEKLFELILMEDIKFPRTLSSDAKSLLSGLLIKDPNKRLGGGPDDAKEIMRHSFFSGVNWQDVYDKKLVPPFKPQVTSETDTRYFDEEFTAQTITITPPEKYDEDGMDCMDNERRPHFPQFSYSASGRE
Method: as §1, §2, §3, §4, §5, §6, §7, §8, §9

T1 sequence (P31751 whole entry): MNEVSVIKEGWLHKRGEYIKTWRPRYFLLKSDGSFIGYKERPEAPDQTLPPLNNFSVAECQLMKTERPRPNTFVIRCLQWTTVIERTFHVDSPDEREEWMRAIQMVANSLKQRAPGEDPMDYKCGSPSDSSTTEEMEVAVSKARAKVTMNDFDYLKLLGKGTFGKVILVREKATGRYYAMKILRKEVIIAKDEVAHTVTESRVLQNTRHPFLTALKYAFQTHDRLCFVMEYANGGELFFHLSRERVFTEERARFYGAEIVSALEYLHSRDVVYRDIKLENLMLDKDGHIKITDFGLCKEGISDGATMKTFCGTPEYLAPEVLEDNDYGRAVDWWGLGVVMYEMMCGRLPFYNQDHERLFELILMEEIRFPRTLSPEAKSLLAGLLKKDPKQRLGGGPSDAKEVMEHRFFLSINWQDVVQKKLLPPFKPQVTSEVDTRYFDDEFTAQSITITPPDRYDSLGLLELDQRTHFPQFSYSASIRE

SMILES	IC50 (AKT2)	IC50 (AKT1)	IC50 (AKT3)
CCN1CC(=O)Nc2ncnc(N3CC4CCC(C3)N4C(=O)[C@H](CNC(C)C)c3ccc(Cl)cc3)c21 [Example 28]	89 nM	2.1 nM	0.19 nM
CC(C)NC[C@@H](C(=O)N1C2CCC1CN(c1ncnc3[nH]c(=O)c(=O)n(C)c13)C2)c1ccc(Cl)cc1 [Example 36, 4-(8-((S)-2-(4-chlorophenyl)-3-(isopropylamino)propionyl)-3,8-diazabicyclo[3.2.1]octan-3-yl)-5-methyl-5,8-dihydropteridine-6,7-dione]	800 nM	77 nM	22 nM
C[C@@H]1CC(=O)Nc2ncnc(N3CC4CCC(C3)N4C(=O)[C@H](CNC3CC3)c3ccc(Cl)cc3)c21 [Example 38]	23 nM	2.4 nM	0.28 nM

The remaining lines, values ahead:

IC50 (AKT2)	IC50 (AKT1)	IC50 (AKT3)	SMILES
4.3 nM	2.4 nM	0.4 nM	CC(C)NC[C@@H](C(=O)N1CCN(c2ncnc3c2[C@H](C)CC(=O)N3)CC1)c1ccc(Cl)cc1 [Example 2 (R) Configur- ation product, (R)-4-(4-((S)-2-(4-chlorophenyl)-3-(isopropylamino)propionyl)piperazin-1-yl)-5-methyl-5,8-dihydropyrido[2,3-d]pyrimidin-7(6H)-one]
256 nM	590 nM	20.1 nM	C[C@@H]1CC(=O)Nc2ncnc(N3CCN(C(=O)C4(c5ccc(Cl)cc5)CCNCC4)CC3)c21 [Example 18, (R)-4-(4-(4-(4-chlorophenyl)piperidin-4-carbonyl)piperazin-1-yl)-5-methyl-5,8-dihydropyrido[2,3-d]pyrimidin-7(6H)-one formate]
334 nM	39 nM	0.56 nM	CC(C)NC[C@@H](C(=O)N1CCN(c2ncnc3c2N(C)CC(=O)N3)C[C@@H]1C)c1ccc(Cl)cc1 [Example 22, 4-((S)-4-((S)-2-(4-chlorophenyl)-3-(isopropylamino)propionyl)-3-methylpiperazin-1-yl)-5-methyl-5,8-dihydropteridine-7(6H)-one]
≥ 1000 nM	210 nM	1.8 nM	CC(C)NC[C@@H](C(=O)N1C2CCC1CN(c1ncnc3c1N(CCO)CC(=O)N3)C2)c1ccc(Cl)cc1 [Example 31]
